Patent US20030232101A1, “Topical formulations of resorcinols and cannibinoids and methods of use” (Immugen Pharmaceuticals, Inc., priority 2002, published 2003)
Entries after “also recorded” stand apart in the source; their conditions may differ. Read-outs that look alike come from different tables or passages of the source.

Assays:
Type in all cases: cell-based
HIV-1 = assay: HeLa CD4 LTR β-gal HIV-1 attachment assay (Experimental Example 1); settings: for IC50: Human immunodeficiency virus 1, HeLa; for inhibition of HIV attachment/entry: following a 24 h pre-incubation
[1] = Compound toxicity in the attachment assay, sister plates, MTS dye reduction; settings: human, HeLa CD4 LTR β-gal cells, read-out: TC50
Procedure: At assay termination the assay plates were stained with the soluble tetrazolium-based dye MTS (CellTiter96® Reagent Promega) to determine cell viability and quantify compound toxicity. MTS is metabolized by the mitochondria enzymes of metabolically active cells to a soluble formazan product, allowing the rapid quantitative analysis cell viability and compound cytotoxicity. […] At termination of the assay 20 μL of MTS reagent was added per well and incubated for 4 h at 37° C. Adhesive plate sealers were used in place of the lids, the sealed plate was inverted several times to mix the soluble formazan product and the plate was read spectrophotometrically at 490 nm with a Molecular Devices Vmax plate reader.
The attachment assay was performed with the HeLa CD4 LTR β-gal cells available from the AIDS Research and Reference Reagent Repository. […] HeLa CD4 LTR β-gal cells express cell surface CD4 and contain an LTR β-galactosidase reporter construct. Upon infection either the Tat protein incorporated into the virion or new Tat produced following virus integration and transcription trans-activates the LTR β-gal reporter, leading to expression of the β-galactosidase enzyme. HeLa CD4 LTR β-gal cells are routinely cultured with the required selection antibiotics and screened for mycoplasma contamination. Twenty-four h prior to initiation of the assay cells were trypsinized, counted and 1×10^4 cells placed in a 0.2 cm well in media without selection antibiotics. […] A known titer of virus was then added to the wells and the incubation continued for 1 h. At the end of the incubation the wells were washed 6 times with media and the culture continued for 48 h. At 48 h the wells were washed one time with PBS and β-galactosidase enzyme expression determined by chemiluminescence per manufacturers instructions (Tropix Gal-screen™, Tropix, Bedford, Mass.). Compound toxicity was monitored on sister plates using MTS dye reduction.

HIV-1 (96USHIPS7 strain) = assay: HIV attachment assay in PBMCs (cell-associated p24); settings: for Comments: effect on HIV attachment / % Control / pg p24: 15 μM; for Comments: effect on HIV attachment: pretreatment 0, 2, 4, 24 h; for virus binding relative to control: pretreated for 24 h
Procedure: ELISA kits were purchased from Coulter Electronics. The assay was performed according to the manufacturer's instructions. Control curves were generated in each assay to accurately quantitate the amount of p24 antigen in each sample. For experiments using cell lysates. Fifty thousand (5×10^4) viable cells were lysed in Coulter ELISA buffer and subjected to 1 round of freeze/thawed to liberate trapped p24 and p24 detected per manufacturers instructions. HIV capsid protein (p24) was quantitated spectrophotometrically at 450 nm using a Molecular Devices Vmax plate reader using a standard curve. Final concentrations were calculated from the optical density values using the Molecular Devices Soft Max software package.
The attachment assay with PBMCs was performed as follows. Briefly, 1×10^6 PHA/IL-2 PBMCs were incubated for 0, 2, 4 and 24 hours with IMG compounds and cannabidiol in polypropylene tubes. A pre-titered amount of HIV-1 (96USHIPS7 strain, obtained from the AIDS Research and Reference Reagent Program ) was added in the presence of compound and incubated for 3 h at 37° C. After incubation the cultures were washed 3 times (400×g, 10 min, 4° C.) with media (1:25,000 dilution of input p24), the cell pellets lysed with p24 lysing buffer (Coulter) and p24 content determined by ELISA.
PBMCs pretreated with compounds for 0, 2, 4, and 24 were incubated with cell-free HIV-1 for 3 h and the excess unbound HIV removed. The assessed the amount of HIV bound to the cell was then assessed by measuring cell-associated p24 content of total cell lysates.

| SMILES | IC50 (HIV-1; Experiment 1, pretreat 0 h) [µM] | IC50 (HIV-1; Experiment 1, pretreat 4 h) [µM] | IC50 (HIV-1; Experiment 1, pretreat 24 h) [µM] | IC50 (HIV-1; Experiment 2, pretreat 0 h) [µM] | IC50 (HIV-1; Experiment 2, pretreat 4 h) [µM] | IC50 (HIV-1; Experiment 2, pretreat 24 h) [µM] | inhibition of HIV attachment/entry (HIV-1) | CC50 at 48 h ([1]; Experiment 1, pretreat 0 h) [µM] | CC50 at 48 h ([1]; Experiment 1, pretreat 4 h) [µM] | CC50 at 48 h ([1]; Experiment 1, pretreat 24 h) [µM] | CC50 at 48 h ([1]; Experiment 2, pretreat 0 h) [µM] | CC50 at 48 h ([1]; Experiment 2, pretreat 4 h) [µM] | CC50 at 48 h ([1]; Experiment 2, pretreat 24 h) [µM] | % Control (HIV-1 (96USHIPS7 strain); time 0 h) [%] | pg p24 (HIV-1 (96USHIPS7 strain); time 0 h) [pg] | % Control (HIV-1 (96USHIPS7 strain); time 2 h) [%] | pg p24 (HIV-1 (96USHIPS7 strain); time 2 h) [pg] | % Control (HIV-1 (96USHIPS7 strain); time 4 h) [%] | pg p24 (HIV-1 (96USHIPS7 strain); time 4 h) [pg] | % Control (HIV-1 (96USHIPS7 strain); time 24 h) [%] | other results |
| --- | --- | --- | --- | --- | --- | --- | --- | --- | --- | --- | --- | --- | --- | --- | --- | --- | --- | --- | --- | --- | --- |
| C=C(C)[C@@H]1CCC(C)=C[C@H]1c1c(O)cc(CCCCC)cc1O [Cannabidiol, reference compound] | 14.1 | 6.8 | 1.2 | 1.3 | 28 | 1.4 | consistent inhibition | > 50 | > 50 | > 50 | > 50 | 41 | 33 | 82.6 | 317 | 74.5 | 286 | 90.9 | 349 | 114.3 | β-galactosidase production relative to background (cells alone+compounds) (HIV-1; at all times): suppressed β-galactosidase production below background; Comment: suppression of β-galactosidase activity (HIV-1; pretreat 0 h): Exp. 1 suppression of β-galactosidase; Comment: suppression of β-galactosidase activity (HIV-1; pretreat 4 h): Suppression of β-galactosidase activity; Comment: suppression of β-galactosidase activity (HIV-1; pretreat 24 h): Suppression of β-galactosidase activity; Comments: effect on HIV attachment (HIV-1 (96USHIPS7 strain)): No significant effect; pg p24 (HIV-1 (96USHIPS7 strain); time 24 h): 439 pg; virus binding relative to control (HIV-1 (96USHIPS7 strain)): return to control levels of virus binding |
| COc1cc(C(C)(C)CCCC(C)C)cc(OC)c1OC [IMG507, 1-(1,1,5-Trimethylhexyl)-3,4,5-trimethoxybenzene] | > 50 | > 50 | > 50 | 16 | > 50 | > 50 | not | > 50 | > 50 | > 50 | > 50 | > 50 | > 50 | 83.3 | 320 | 91.4 | 351 | 76.3 | 293 | 95.8 | β-galactosidase production relative to background (cells alone+compounds) (HIV-1; at all times): suppressed β-galactosidase production below background; transient suppression of virus replication at lower concentrations of compounds (HIV-1; observed consistently, two independent experiments): transient suppression of virus replication; Comment: transient suppression lost at lower concentrations (HIV-1; pretreat 0 h): Transient suppression lost with at lower; Comment: transient suppression lost at lower concentrations (HIV-1; pretreat 4 h): Transient suppression lost with at lower; Comment: transient suppression lost at lower concentrations (HIV-1; pretreat 24 h): Transient suppression t lost with at lower; Comments: effect on HIV attachment (HIV-1 (96USHIPS7 strain)): no significant effect on virus attachment; pg p24 (HIV-1 (96USHIPS7 strain); time 24 h): 368 pg |
| CC(C)=CCCC1(C)CCc2c(O)cc(C(C)(C)CCCC(C)C)cc2O1 (stereo not drawn) [IMG508, 3,4-Dihydro-2-methyl-2-(4-methyl-3-pentenyl)-7-(1,1,5-trimethylhexyl)-2H-1-benzopyran-5-ol] | 16 | 10.8 | 7.4 | 0.9 | 11 | 2.6 | consistent inhibition | > 50 | > 50 | > 50 | > 50 | 29 | 12.2 | 81.3 | 312 | 85.4 | 328 | 72.7 | 279 | 111.5 | β-galactosidase production relative to background (cells alone+compounds) (HIV-1; at all times): suppressed β-galactosidase production below background; Comment: suppression of β-galactosidase activity (HIV-1; pretreat 0 h): Suppression of β-galactosidase activity,; Comment: transient suppression lost at lower concentrations (HIV-1; pretreat 0 h): Transient suppression lost with at lower; Comment: suppression of β-galactosidase activity (HIV-1; pretreat 4 h): Suppression of β-galactosidase activity; Comment: suppression of β-galactosidase activity (HIV-1; pretreat 24 h): Suppression of β-galactosidase activity,; Comment: transient suppression lost at lower concentrations (HIV-1; pretreat 24 h): Transient suppression lost with at lower; Comments: effect on HIV attachment (HIV-1 (96USHIPS7 strain)): No significant effect; pg p24 (HIV-1 (96USHIPS7 strain); time 24 h): 428 pg; virus binding relative to control (HIV-1 (96USHIPS7 strain)): return to control levels of virus binding |
| CC1=CCC2C(C1)c1c(O)cc(C(C)(C)CCCC(C)C)cc1OC2(C)C (stereo not drawn) [IMG509, 3-Norpentyl-3-(1,1,5-trimethylhexyl)-Δ8-tetrahydrocannabinol] | > 50 | 21 | 11.5 | 28 | 36 | 3.5 | not | > 50 | > 50 | > 50 | > 50 | 37 | 14.9 | 83.6 | 321 | 81.8 | 314 | 61.2 | 235 | 77.3 | β-galactosidase production relative to background (cells alone+compounds) (HIV-1; following 24 h exposure): suppressed β-galactosidase production below background; Comment: transient suppression lost at lower concentrations (HIV-1; pretreat 0 h): transient suppression of virus replication; also recorded: Transient suppression lost with at lower; Comment: suppression of β-galactosidase activity (HIV-1; pretreat 24 h): Suppression of β-galactosidase activity; pg p24 (HIV-1 (96USHIPS7 strain); time 24 h): 297 pg; inhibition of HIV cell-association (HIV-1 (96USHIPS7 strain); 4 h preincubation): significantly inhibit HIV cell-association |
| Cc1c(O)cc(C(C)(C)CCCC(C)C)cc1O [IMG510, 2-Methyl-5-(1,1,5-trimethylhexyl)resorcinol] | > 50 | > 50 | 0.14 | > 50 | > 50 | 11.5 | consistent inhibition | > 50 | > 50 | > 50 | > 50 | > 50 | 39.4 | 91.1 | 350 | 85.7 | 329 | 71.4 | 274 | 88.3 | β-galactosidase production relative to background (cells alone+compounds) (HIV-1; following 24 h exposure): suppressed β-galactosidase production below background; Comment: transient suppression lost at lower concentrations (HIV-1; pretreat 4 h): transient suppression of virus replication; also recorded: Transient suppression lost with at lower; Comment: suppression of β-galactosidase activity (HIV-1; pretreat 24 h): Suppression of β-galactosidase activity; pg p24 (HIV-1 (96USHIPS7 strain); time 24 h): 339 pg |
